From patent US8741907B2, “Alkyl-substituted pyrazolopyrimidines” (Boehringer Ingelheim International GmbH, priority 2002, dated 2014) come the findings set out here.

For one data set, the target named is PDE4B (Homo sapiens, UniProt Q07343). As to the kind of experiment: PDE inhibition, recombinant PDE4B. Format: biochemical. As for the experimental part:
The test substances are dissolved in 100% DMSO and serially diluted to determine their in vitro effect on PDE 9A. […] 2 μL portions of the diluted substance solutions are introduced into the wells of microtiter plates (Isoplate; Wallac Inc., Atlanta, Ga.). Then 50 μL of a dilution of the PDE9A preparation described above are added. […] The substrate, [8-^3H] guanosine 3′,5′-cyclic phosphate (1 μCi/μL; Amersham Pharmacia Biotech., Piscataway, N.J.) is diluted 1:2000 with assay buffer (50 mM Tris/HCl pH 7.5, 8.3 mM MgCl2, 1.7 mM EDTA) to a concentration of 0.0005 μCi/μL. The enzyme reaction is finally started by adding 50 μL (0.025 μCi) of the diluted substrate. […] Immediately thereafter, 25 μL of a suspension containing 18 mg/mL Yttrium Scintillation Proximity Beads (Amersham Pharmacia Biotech., Piscataway, N.J.) are added. […] The plates are then measured for 30 s per well in a Microbeta scintillation counter (Wallac Inc., Atlanta, Ga.). IC50 values are determined from the graphical plot of the substance concentration versus the percentage inhibition.
The in vitro effect of test substances on recombinant PDE3B, PDE4B, PDE7B, PDE8A, PDE10A and PDE11A is determined in accordance with the assay protocol described above for PDE9A with the following adaptations: [5′,8-^3H] adenosine 3′,5′-cyclic phosphate (1 μCi/μL; Amersham Pharmacia Biotech., Piscataway, N.J.) is used as substrate.

The target of the next data set is PDE9A (Homo sapiens (Human), UniProt O76083). The experiment in a line: PDE inhibition, recombinant PDE9A. Format: biochemical. As for the experimental part:
The test substances are dissolved in 100% DMSO and serially diluted to determine their in vitro effect on PDE 9A. […] 2 μL portions of the diluted substance solutions are introduced into the wells of microtiter plates (Isoplate; Wallac Inc., Atlanta, Ga.). Then 50 μL of a dilution of the PDE9A preparation described above are added. […] The substrate, [8-^3H] guanosine 3′,5′-cyclic phosphate (1 μCi/μL; Amersham Pharmacia Biotech., Piscataway, N.J.) is diluted 1:2000 with assay buffer (50 mM Tris/HCl pH 7.5, 8.3 mM MgCl2, 1.7 mM EDTA) to a concentration of 0.0005 μCi/μL. The enzyme reaction is finally started by adding 50 μL (0.025 μCi) of the diluted substrate. […] Immediately thereafter, 25 μL of a suspension containing 18 mg/mL Yttrium Scintillation Proximity Beads (Amersham Pharmacia Biotech., Piscataway, N.J.) are added. The microliter plates are sealed with a film and left to stand at room temperature for 60 min. The plates are then measured for 30 s per well in a Microbeta scintillation counter (Wallac Inc., Atlanta, Ga.). IC50 values are determined from the graphical plot of the substance concentration versus the percentage inhibition.

A further data set addresses PDE7B (Homo sapiens (Human), UniProt Q9NP56). The experiment in a line: PDE inhibition, recombinant PDE7B. Format: biochemical. The text has this:
(§1) Recombinant PDE1C (GenBank/EMBL Accession Number: NM_005020, Loughney et al. J. Biol. Chem. 1996 271, 796-806), PDE2A (GenBank/EMBL Accession Number: NM_002599, Rosman et al. Gene 1997 191, 89-95), PDE3B (GenBank/EMBL Accession Number: NM_000922, Miki et al. Genomics 1996, 36, 476-485), PDE4B (GenBank/EMBL Accession Number: NM_002600, Obernolte et al. Gene. 1993, 129, 239-247), PDE5A (GenBank/EMBL Accession Number: NM_001083, Loughney et al. Gene 1998, 216, 139-147), PDE7B (GenBank/EMBL Accession Number: NM_018945, Hetman et al. Proc. Natl. Acad. Sci. U.S.A. 2000, 97, 472-476), PDE8A (GenBank/EMBL Accession Number. AF—056490, Fisher et al. Biochem. Biophys. Res. Commun. […]
(§2) The test substances are dissolved in 100% DMSO and serially diluted to determine their in vitro effect on PDE 9A. […] The plates are then measured for 30 s per well in a Microbeta scintillation counter (Wallac Inc., Atlanta, Ga.). IC50 values are determined from the graphical plot of the substance concentration versus the percentage inhibition.
(§3) The in vitro effect of test substances on recombinant PDE3B, PDE4B, PDE7B, PDE8A, PDE10A and PDE11A is determined in accordance with the assay protocol described above for PDE9A with the following adaptations: [5′,8-^3H] adenosine 3′,5′-cyclic phosphate (1 μCi/μL; Amersham Pharmacia Biotech., Piscataway, N.J.) is used as substrate. […]

Another data set addresses PDE5A (Homo sapiens (Human), UniProt O76074). As to the kind of experiment: PDE inhibition, recombinant PDE5A. Format: biochemical.
Description: as §1, §2, §3

The next data set deals with PDE2A (Homo sapiens (Human), UniProt O00408). The experiment in a line: PDE inhibition, recombinant PDE2A. Format: biochemical.
Description: as §1, §2, §3

The next data set addresses PDE1C (Homo sapiens (Human), UniProt Q14123). The experiment in a line: PDE inhibition, recombinant PDE1C. Format: biochemical.
The next data set concerns the target PDE3B (Homo sapiens (Human), UniProt Q13370). As to the kind of experiment: PDE inhibition, recombinant PDE3B. Format: biochemical.
Description: as §1, §2, §3

A further data set deals with PDE10A (Homo sapiens (Human), UniProt Q9Y233). The experiment in a line: PDE inhibition, recombinant PDE10A. Format: biochemical.
Description: as §1, §2, §3

A further data set concerns the target PDE8A (Homo sapiens (Human), UniProt O60658). The experiment in a line: PDE inhibition, recombinant PDE8A. Format: biochemical.
Description: as §1, §2, §3

Sequence of PDE4B (Q07343 whole entry, looked up): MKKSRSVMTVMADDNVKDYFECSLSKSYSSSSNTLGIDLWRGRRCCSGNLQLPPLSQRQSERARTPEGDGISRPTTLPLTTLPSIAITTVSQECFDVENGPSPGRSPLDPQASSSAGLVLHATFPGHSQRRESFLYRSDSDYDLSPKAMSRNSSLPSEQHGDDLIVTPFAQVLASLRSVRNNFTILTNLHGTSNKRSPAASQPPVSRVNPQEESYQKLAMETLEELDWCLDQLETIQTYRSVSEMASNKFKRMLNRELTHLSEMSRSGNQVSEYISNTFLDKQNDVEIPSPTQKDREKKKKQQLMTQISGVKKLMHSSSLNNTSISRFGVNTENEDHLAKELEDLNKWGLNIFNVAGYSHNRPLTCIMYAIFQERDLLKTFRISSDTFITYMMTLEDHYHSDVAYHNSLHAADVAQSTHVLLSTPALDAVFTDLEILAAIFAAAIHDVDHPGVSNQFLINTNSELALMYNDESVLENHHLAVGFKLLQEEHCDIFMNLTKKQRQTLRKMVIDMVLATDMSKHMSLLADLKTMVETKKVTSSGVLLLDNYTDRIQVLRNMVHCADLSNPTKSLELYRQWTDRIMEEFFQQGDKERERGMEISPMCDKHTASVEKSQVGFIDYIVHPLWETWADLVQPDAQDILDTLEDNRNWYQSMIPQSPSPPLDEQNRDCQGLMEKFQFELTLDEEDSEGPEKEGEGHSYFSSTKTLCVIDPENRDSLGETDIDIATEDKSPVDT
Sequence of PDE9A (O76083 whole entry): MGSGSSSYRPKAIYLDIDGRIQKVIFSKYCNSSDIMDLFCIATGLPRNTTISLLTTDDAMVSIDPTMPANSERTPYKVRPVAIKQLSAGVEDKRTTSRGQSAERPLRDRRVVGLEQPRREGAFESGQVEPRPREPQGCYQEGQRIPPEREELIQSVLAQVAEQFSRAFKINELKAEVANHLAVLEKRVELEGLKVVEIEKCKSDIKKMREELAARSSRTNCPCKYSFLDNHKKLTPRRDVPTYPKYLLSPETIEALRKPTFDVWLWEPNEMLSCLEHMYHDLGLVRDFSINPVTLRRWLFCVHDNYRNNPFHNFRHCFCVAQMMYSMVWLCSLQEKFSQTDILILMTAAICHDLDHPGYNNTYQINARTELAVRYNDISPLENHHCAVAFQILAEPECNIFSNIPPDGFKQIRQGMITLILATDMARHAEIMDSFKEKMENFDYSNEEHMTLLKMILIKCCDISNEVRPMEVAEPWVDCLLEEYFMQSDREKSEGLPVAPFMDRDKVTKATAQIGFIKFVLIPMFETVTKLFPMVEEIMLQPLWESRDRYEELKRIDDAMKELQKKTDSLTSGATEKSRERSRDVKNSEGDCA
Sequence of PDE3B (Q13370 whole entry): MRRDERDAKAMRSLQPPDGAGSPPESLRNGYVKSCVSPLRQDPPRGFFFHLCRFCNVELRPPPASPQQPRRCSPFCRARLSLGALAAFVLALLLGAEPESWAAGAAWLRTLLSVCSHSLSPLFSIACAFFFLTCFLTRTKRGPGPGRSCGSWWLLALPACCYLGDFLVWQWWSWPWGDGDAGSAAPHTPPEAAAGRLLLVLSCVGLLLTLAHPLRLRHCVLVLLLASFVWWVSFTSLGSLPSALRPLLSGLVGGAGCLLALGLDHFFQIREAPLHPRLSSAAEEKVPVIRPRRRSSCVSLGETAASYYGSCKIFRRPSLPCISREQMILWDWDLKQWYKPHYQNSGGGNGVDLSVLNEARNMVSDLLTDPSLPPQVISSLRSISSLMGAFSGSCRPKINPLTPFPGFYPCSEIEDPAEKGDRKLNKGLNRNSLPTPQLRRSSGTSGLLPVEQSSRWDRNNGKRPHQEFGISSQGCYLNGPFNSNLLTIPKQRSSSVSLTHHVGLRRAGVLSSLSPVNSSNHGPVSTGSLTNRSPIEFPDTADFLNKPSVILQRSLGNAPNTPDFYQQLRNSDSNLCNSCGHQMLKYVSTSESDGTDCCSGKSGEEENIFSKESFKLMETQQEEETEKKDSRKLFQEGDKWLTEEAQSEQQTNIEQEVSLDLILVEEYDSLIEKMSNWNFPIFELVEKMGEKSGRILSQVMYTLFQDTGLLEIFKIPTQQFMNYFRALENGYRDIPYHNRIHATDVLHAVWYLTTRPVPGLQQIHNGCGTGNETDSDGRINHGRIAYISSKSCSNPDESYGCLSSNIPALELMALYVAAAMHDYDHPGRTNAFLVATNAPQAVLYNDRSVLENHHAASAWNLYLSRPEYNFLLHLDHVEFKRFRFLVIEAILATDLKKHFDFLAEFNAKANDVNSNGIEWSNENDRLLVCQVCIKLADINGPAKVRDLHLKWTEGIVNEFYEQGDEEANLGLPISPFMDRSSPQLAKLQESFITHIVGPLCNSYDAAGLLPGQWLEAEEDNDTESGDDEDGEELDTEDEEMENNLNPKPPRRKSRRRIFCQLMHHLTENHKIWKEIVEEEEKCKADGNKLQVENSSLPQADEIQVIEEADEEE
Sequence of PDE7B (Q9NP56 whole entry): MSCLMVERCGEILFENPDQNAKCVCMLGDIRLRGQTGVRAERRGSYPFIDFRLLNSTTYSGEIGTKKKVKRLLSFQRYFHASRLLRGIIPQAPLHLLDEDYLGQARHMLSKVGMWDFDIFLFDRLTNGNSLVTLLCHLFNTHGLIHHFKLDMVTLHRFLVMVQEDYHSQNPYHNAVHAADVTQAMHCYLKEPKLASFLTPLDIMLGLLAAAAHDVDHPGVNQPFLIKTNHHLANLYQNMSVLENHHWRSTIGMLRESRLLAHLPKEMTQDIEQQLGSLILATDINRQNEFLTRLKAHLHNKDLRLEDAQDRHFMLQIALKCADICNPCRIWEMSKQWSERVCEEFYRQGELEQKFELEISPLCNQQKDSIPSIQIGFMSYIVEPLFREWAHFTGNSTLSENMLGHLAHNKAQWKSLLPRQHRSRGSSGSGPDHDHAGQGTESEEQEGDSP
Sequence of PDE8A (O60658 117-829): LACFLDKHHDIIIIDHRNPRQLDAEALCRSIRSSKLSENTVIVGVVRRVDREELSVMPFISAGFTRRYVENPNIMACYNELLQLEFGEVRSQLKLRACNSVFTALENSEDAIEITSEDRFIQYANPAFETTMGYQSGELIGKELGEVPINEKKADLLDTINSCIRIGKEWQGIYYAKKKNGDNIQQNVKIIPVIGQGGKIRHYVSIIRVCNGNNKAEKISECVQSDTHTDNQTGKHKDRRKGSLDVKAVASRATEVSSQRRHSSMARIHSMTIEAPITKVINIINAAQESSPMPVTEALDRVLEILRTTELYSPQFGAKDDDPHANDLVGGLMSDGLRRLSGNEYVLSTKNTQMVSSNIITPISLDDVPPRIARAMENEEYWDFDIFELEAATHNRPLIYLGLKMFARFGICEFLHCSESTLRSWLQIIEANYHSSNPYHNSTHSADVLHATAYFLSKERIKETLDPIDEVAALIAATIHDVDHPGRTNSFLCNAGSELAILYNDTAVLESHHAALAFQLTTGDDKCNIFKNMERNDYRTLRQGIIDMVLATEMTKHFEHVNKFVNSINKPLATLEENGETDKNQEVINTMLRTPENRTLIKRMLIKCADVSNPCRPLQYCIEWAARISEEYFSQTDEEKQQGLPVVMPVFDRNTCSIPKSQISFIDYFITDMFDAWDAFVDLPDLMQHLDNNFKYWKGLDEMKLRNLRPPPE
Sequence of PDE2A (O00408 whole entry): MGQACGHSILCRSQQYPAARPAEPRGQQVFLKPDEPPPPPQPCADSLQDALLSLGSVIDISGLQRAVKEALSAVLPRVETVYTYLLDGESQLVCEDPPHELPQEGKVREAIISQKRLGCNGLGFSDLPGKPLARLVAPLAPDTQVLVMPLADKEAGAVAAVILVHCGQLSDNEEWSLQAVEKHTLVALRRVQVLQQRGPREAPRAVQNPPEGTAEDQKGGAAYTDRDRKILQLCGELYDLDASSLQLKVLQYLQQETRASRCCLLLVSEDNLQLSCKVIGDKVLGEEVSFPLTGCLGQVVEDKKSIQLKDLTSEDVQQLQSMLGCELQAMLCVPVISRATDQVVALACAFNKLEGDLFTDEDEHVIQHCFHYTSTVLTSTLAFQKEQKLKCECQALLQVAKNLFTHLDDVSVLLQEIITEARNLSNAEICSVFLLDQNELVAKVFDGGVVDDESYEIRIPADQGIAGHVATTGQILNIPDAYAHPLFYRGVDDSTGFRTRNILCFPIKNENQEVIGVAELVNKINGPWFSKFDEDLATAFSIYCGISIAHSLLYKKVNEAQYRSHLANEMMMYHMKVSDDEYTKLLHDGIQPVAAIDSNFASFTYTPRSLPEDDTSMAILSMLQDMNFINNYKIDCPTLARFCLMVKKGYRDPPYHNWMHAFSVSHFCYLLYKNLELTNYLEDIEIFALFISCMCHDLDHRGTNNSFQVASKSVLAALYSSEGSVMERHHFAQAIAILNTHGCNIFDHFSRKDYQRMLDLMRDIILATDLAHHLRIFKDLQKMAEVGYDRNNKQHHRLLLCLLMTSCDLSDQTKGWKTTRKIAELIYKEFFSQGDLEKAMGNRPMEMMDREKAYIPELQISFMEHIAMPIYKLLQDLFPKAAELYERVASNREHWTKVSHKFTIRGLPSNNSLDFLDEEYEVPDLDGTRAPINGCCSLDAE

With `CCC(CC)n1ncc2c(=O)[nH]c(CC3CCCCC3)nc21` [Example 3, 6-(Cyclohexylmethyl)-1-(1-ethylpropyl)-1,5-dihydro-4H-pyrazolo[3,4-d]pyrimidin-4-one], the melting point is 122 °C. At PDE4B, the IC50 was above 4 µM. The IC50 at PDE9A came to 0.11 µM. Moreover, on PDE7B, the IC50 was above 4 µM. Also, on PDE5A, the IC50 is above 4 µM. In addition, the IC50 at PDE2A is above 4 µM. For the same compound, on PDE1C, the concentration for half-maximal inhibition (IC50) was 0.72 µM. The IC50 at PDE3B was above 4 µM. For the same compound, on PDE10A, the IC50 was above 4 µM. Further, on PDE8A, the IC50 was above 4 µM.
